# Results: ChEMBL document CHEMBL1781873, “Synthesis and antibacterial property of pyrrolopyrano quinolinones and pyrroloquinolines” (2011)
# Activity calls are given as the source filed them. The calls are words filed in the database; no cut-off is given here.
# What was measured:
# [1] = system: Salmonella typhi; test: Antibacterial activity against Salmonella typhi at 10 ug after 24 hrs by disc diffusion assay; assay type: functional, Salmonella enterica subsp. enterica serovar Typhi; conditions: Salmonella enterica, read-out: IZ
# [2] = system: Salmonella typhi; test: Antibacterial activity against Salmonella typhi at 15 ug after 24 hrs by disc diffusion assay; assay type: functional, Salmonella enterica subsp. enterica serovar Typhi; conditions: Salmonella enterica, read-out: IZ
# [3] = system: Salmonella typhi; test: Antibacterial activity against Salmonella typhi at 20 ug after 24 hrs by disc diffusion assay; assay type: functional, Salmonella enterica subsp. enterica serovar Typhi; conditions: Salmonella enterica, read-out: IZ
# [4] = system: Salmonella typhi; test: Antibacterial activity against Salmonella typhi at 25 ug after 24 hrs by disc diffusion assay; assay type: functional, Salmonella enterica subsp. enterica serovar Typhi; conditions: Salmonella enterica, read-out: IZ
# [5] = system: Bacillus subtilis; test: Antibacterial activity against Bacillus subtilis at 10 ug after 24 hrs by disc diffusion assay; assay type: functional; conditions: read-out: IZ
# [6] = system: Bacillus subtilis; test: Antibacterial activity against Bacillus subtilis at 15 ug after 24 hrs by disc diffusion assay; assay type: functional; conditions: read-out: IZ
# [7] = system: Bacillus subtilis; test: Antibacterial activity against Bacillus subtilis at 20 ug after 24 hrs by disc diffusion assay; assay type: functional; conditions: read-out: IZ
# [8] = system: Bacillus subtilis; test: Antibacterial activity against Bacillus subtilis at 25 ug after 24 hrs by disc diffusion assay; assay type: functional; conditions: read-out: IZ
# [9] = system: Escherichia coli; test: Inhibition of Escherichia coli DNA gyrase assessed as inhibition of DNA supercoiling activity using pBR322 DNA as substrate at […] after 3 hrs by agarose gel electrophoresis
# [10] = system: Escherichia coli; test: Inhibition of Escherichia coli DNA gyrase -mediated DNA relaxation using pBR322 DNA as substrate at […] after 1 hrs by agarose gel electrophoresis
# [11] = system: Escherichia coli; test: Inhibition of DNA gyrase mRNA expression in Escherichia coli measured up to 24 hrs by RT-PCR; assay type: functional, organism-based
# [12] = system: Staphylococcus aureus; test: Antibacterial activity against Staphylococcus aureus after 18 to 20 hrs by broth micro dilution assay; assay type: functional
# [13] = system: Escherichia coli; test: Antibacterial activity against Escherichia coli after 18 to 20 hrs by broth micro dilution assay; assay type: functional
# [14] = system: Klebsiella pneumoniae; test: Antibacterial activity against Klebsiella pneumoniae after 18 to 20 hrs by broth micro dilution assay; assay type: functional
# [15] = system: Pseudomonas aeruginosa; test: Antibacterial activity against Pseudomonas aeruginosa after 18 to 20 hrs by broth micro dilution assay; assay type: functional
# [16] = system: Salmonella typhi; test: Antibacterial activity against Salmonella typhi after 18 to 20 hrs by broth micro dilution assay; assay type: functional, Salmonella enterica subsp. enterica serovar Typhi; conditions: Salmonella enterica
# [17] = system: Bacillus subtilis; test: Antibacterial activity against Bacillus subtilis after 18 to 20 hrs by broth micro dilution assay; assay type: functional
# [18] = system: Staphylococcus aureus; test: Antibacterial activity against Staphylococcus aureus at 5 ug after 24 hrs by disc diffusion assay; assay type: functional; conditions: read-out: IZ
# [19] = system: Staphylococcus aureus; test: Antibacterial activity against Staphylococcus aureus at 10 ug after 24 hrs by disc diffusion assay; assay type: functional; conditions: read-out: IZ
# [20] = system: Staphylococcus aureus; test: Antibacterial activity against Staphylococcus aureus at 15 ug after 24 hrs by disc diffusion assay; assay type: functional; conditions: read-out: IZ
# [21] = system: Staphylococcus aureus; test: Antibacterial activity against Staphylococcus aureus at 20 ug after 24 hrs by disc diffusion assay; assay type: functional; conditions: read-out: IZ
# [22] = system: Staphylococcus aureus; test: Antibacterial activity against Staphylococcus aureus at 25 ug after 24 hrs by disc diffusion assay; assay type: functional; conditions: read-out: IZ
# [23] = system: Escherichia coli; test: Antibacterial activity against Escherichia coli at 5 ug after 24 hrs by disc diffusion assay; assay type: functional; conditions: read-out: IZ
# [24] = system: Escherichia coli; test: Antibacterial activity against Escherichia coli at 10 ug after 24 hrs by disc diffusion assay; assay type: functional; conditions: read-out: IZ
# [25] = system: Escherichia coli; test: Antibacterial activity against Escherichia coli at 15 ug after 24 hrs by disc diffusion assay; assay type: functional; conditions: read-out: IZ
# [26] = system: Escherichia coli; test: Antibacterial activity against Escherichia coli at 20 ug after 24 hrs by disc diffusion assay; assay type: functional; conditions: read-out: IZ
# [27] = system: Escherichia coli; test: Antibacterial activity against Escherichia coli at 25 ug after 24 hrs by disc diffusion assay; assay type: functional; conditions: read-out: IZ
# [28] = system: Pseudomonas aeruginosa; test: Antibacterial activity against Pseudomonas aeruginosa at 5 ug after 24 hrs by disc diffusion assay; assay type: functional; conditions: read-out: IZ
# [29] = system: Pseudomonas aeruginosa; test: Antibacterial activity against Pseudomonas aeruginosa at 10 ug after 24 hrs by disc diffusion assay; assay type: functional; conditions: read-out: IZ
# [30] = system: Pseudomonas aeruginosa; test: Antibacterial activity against Pseudomonas aeruginosa at 15 ug after 24 hrs by disc diffusion assay; assay type: functional; conditions: read-out: IZ
# [31] = system: Pseudomonas aeruginosa; test: Antibacterial activity against Pseudomonas aeruginosa at 20 ug after 24 hrs by disc diffusion assay; assay type: functional; conditions: read-out: IZ
# [32] = system: Pseudomonas aeruginosa; test: Antibacterial activity against Pseudomonas aeruginosa at 25 ug after 24 hrs by disc diffusion assay; assay type: functional; conditions: read-out: IZ
# [33] = system: Klebsiella pneumoniae; test: Antibacterial activity against Klebsiella pneumoniae at 5 ug after 24 hrs by disc diffusion assay; assay type: functional; conditions: read-out: IZ
# [34] = system: Klebsiella pneumoniae; test: Antibacterial activity against Klebsiella pneumoniae at 10 ug after 24 hrs by disc diffusion assay; assay type: functional; conditions: read-out: IZ
# [35] = system: Klebsiella pneumoniae; test: Antibacterial activity against Klebsiella pneumoniae at 15 ug after 24 hrs by disc diffusion assay; assay type: functional; conditions: read-out: IZ
# [36] = system: Klebsiella pneumoniae; test: Antibacterial activity against Klebsiella pneumoniae at 20 ug after 24 hrs by disc diffusion assay; assay type: functional; conditions: read-out: IZ
# [37] = system: Klebsiella pneumoniae; test: Antibacterial activity against Klebsiella pneumoniae at 25 ug after 24 hrs by disc diffusion assay; assay type: functional; conditions: read-out: IZ
# [38] = system: Salmonella typhi; test: Antibacterial activity against Salmonella typhi at 5 ug after 24 hrs by disc diffusion assay; assay type: functional, Salmonella enterica subsp. enterica serovar Typhi; conditions: Salmonella enterica, read-out: IZ
smiles,measurement,setting,value
CCC1[C@@H]2c3c(c4ccccc4n(C)c3=O)OC(c3ccccc3)[C@H]2CN1OS(=O)(=O)c1ccc(C)cc1 (mixture of isomers),zone of inhibition at 10 µg/disc,[1],16 mm
same,zone of inhibition at 15 µg/disc,[2],18 mm
same,zone of inhibition at 20 µg/disc,[3],20 mm
same,zone of inhibition at 25 µg/disc,[4],22 mm
same,zone of inhibition at 10 µg/disc,[5],7 mm
same,zone of inhibition at 15 µg/disc,[6],9 mm
same,zone of inhibition at 20 µg/disc,[7],10 mm
same,zone of inhibition at 25 µg/disc,[8],12 mm
same,DNA gyrase inhibition (active/inactive),[9],Active
same,inhibition,[10],Active
same,inhibition of gyrase mRNA expression (active/not active),[11],Active
same,MIC50,[12],128 µg/mL
same,MIC90,[12],128 µg/mL
same,MIC50,[13],128 µg/mL
same,MIC90,[13],128 µg/mL
same,MIC50,[14],128 µg/mL
same,MIC90,[14],128 µg/mL
same,MIC50,[15],128 µg/mL
same,MIC90,[15],128 µg/mL
same,MIC50,[16],128 µg/mL
same,MIC90,[16],128 µg/mL
same,MIC50,[17],128 µg/mL
same,MIC90,[17],128 µg/mL
same,zone of inhibition at 5 µg/disc,[18],9 mm
same,zone of inhibition at 10 µg/disc,[19],12 mm
same,zone of inhibition at 15 µg/disc,[20],13 mm
same,zone of inhibition at 20 µg/disc,[21],14 mm
same,zone of inhibition at 25 µg/disc,[22],17 mm
same,zone of inhibition at 5 µg/disc,[23],10 mm
same,zone of inhibition at 10 µg/disc,[24],16 mm
same,zone of inhibition at 15 µg/disc,[25],18 mm
same,zone of inhibition at 20 µg/disc,[26],20 mm
same,zone of inhibition at 25 µg/disc,[27],23 mm
same,zone of inhibition at 5 µg/disc,[28],10 mm
same,zone of inhibition at 10 µg/disc,[29],16 mm
same,zone of inhibition at 15 µg/disc,[30],17 mm
same,zone of inhibition at 20 µg/disc,[31],22 mm
same,zone of inhibition at 25 µg/disc,[32],24 mm
same,zone of inhibition at 5 µg/disc,[33],20 mm
same,zone of inhibition at 10 µg/disc,[34],26 mm
same,zone of inhibition at 15 µg/disc,[35],30 mm
same,zone of inhibition at 20 µg/disc,[36],34 mm
same,zone of inhibition at 25 µg/disc,[37],36 mm
same,zone of inhibition at 5 µg/disc,[38],10 mm
CCC1[C@@H]2Nc3ccccc3C(c3ccccc3)[C@H]2CN1OS(=O)(=O)c1ccc(C)cc1 (some centres not stated),zone of inhibition at 10 µg/disc,[1],16 mm
same,zone of inhibition at 15 µg/disc,[2],18 mm
same,zone of inhibition at 20 µg/disc,[3],22 mm
same,zone of inhibition at 25 µg/disc,[4],24 mm
same,zone of inhibition at 15 µg/disc,[6],6 mm
same,zone of inhibition at 20 µg/disc,[7],7 mm
same,zone of inhibition at 25 µg/disc,[8],9 mm
same,DNA gyrase inhibition (active/inactive),[9],Active
same,inhibition,[10],Active
same,inhibition of gyrase mRNA expression (active/not active),[11],inactive
same,MIC50,[12],64 µg/mL
same,MIC90,[12],128 µg/mL
same,MIC50,[13],64 µg/mL
same,MIC90,[13],64 µg/mL
same,MIC50,[14],64 µg/mL
same,MIC90,[14],64 µg/mL
same,MIC50,[15],64 µg/mL
same,MIC90,[15],128 µg/mL
same,MIC50,[16],64 µg/mL
same,MIC90,[16],128 µg/mL
same,MIC50,[17],64 µg/mL
same,MIC90,[17],128 µg/mL
same,zone of inhibition at 5 µg/disc,[18],20 mm
same,zone of inhibition at 10 µg/disc,[19],24 mm
same,zone of inhibition at 15 µg/disc,[20],26 mm
same,zone of inhibition at 20 µg/disc,[21],30 mm
same,zone of inhibition at 25 µg/disc,[22],36 mm
same,zone of inhibition at 5 µg/disc,[23],10 mm
same,zone of inhibition at 10 µg/disc,[24],16 mm
same,zone of inhibition at 15 µg/disc,[25],18 mm
same,zone of inhibition at 20 µg/disc,[26],20 mm
same,zone of inhibition at 25 µg/disc,[27],23 mm
same,zone of inhibition at 5 µg/disc,[28],10 mm
same,zone of inhibition at 10 µg/disc,[29],14 mm
same,zone of inhibition at 15 µg/disc,[30],16 mm
same,zone of inhibition at 20 µg/disc,[31],20 mm
same,zone of inhibition at 25 µg/disc,[32],23 mm
same,zone of inhibition at 5 µg/disc,[33],20 mm
same,zone of inhibition at 10 µg/disc,[34],26 mm
same,zone of inhibition at 15 µg/disc,[35],30 mm
same,zone of inhibition at 20 µg/disc,[36],34 mm
same,zone of inhibition at 25 µg/disc,[37],36 mm
same,zone of inhibition at 5 µg/disc,[38],10 mm
